These results are taken from ChEMBL document CHEMBL1201862, “PubChem BioAssay data set” (2004).

Activity calls are given as the source filed them. Some results are limits rather than exact numbers.

Assay [1] deals with T1, Replicative DNA helicase DnaB (Mycobacterium tuberculosis, UniProt P9WMR3).
T1 sequence (P9WMR3 whole entry): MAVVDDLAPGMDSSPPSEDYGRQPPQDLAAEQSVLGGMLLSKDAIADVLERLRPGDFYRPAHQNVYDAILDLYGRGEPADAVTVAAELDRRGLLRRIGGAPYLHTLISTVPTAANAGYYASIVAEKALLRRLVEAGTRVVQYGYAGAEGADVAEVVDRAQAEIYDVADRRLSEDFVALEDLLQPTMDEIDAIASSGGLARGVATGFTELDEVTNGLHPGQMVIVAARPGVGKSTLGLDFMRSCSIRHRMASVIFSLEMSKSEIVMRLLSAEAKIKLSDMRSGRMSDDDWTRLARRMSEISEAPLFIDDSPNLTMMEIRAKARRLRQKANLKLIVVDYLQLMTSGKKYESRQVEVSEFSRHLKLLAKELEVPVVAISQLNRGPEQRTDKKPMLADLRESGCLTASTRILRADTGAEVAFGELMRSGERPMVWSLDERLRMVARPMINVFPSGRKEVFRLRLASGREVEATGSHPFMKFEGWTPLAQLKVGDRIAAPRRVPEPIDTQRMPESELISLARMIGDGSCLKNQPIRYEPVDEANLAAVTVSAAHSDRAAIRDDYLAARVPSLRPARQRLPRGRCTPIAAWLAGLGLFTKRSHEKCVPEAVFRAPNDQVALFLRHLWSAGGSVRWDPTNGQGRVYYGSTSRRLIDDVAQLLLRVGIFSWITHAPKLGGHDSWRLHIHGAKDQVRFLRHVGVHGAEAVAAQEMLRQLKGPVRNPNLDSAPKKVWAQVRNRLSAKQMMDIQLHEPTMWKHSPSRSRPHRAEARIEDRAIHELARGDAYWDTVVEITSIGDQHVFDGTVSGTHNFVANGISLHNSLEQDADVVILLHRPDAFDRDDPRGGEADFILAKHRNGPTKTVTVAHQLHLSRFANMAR
As to the kind of experiment: DnaB intein splicing inhibitors, dose response, biochemical, cell-free fluorescence (AID 449749). The format is functional.

Assay [2] concerns the target T2, Protein RecA (Mycobacterium tuberculosis, UniProt P9WHJ3).
T2 sequence (P9WHJ3 whole entry): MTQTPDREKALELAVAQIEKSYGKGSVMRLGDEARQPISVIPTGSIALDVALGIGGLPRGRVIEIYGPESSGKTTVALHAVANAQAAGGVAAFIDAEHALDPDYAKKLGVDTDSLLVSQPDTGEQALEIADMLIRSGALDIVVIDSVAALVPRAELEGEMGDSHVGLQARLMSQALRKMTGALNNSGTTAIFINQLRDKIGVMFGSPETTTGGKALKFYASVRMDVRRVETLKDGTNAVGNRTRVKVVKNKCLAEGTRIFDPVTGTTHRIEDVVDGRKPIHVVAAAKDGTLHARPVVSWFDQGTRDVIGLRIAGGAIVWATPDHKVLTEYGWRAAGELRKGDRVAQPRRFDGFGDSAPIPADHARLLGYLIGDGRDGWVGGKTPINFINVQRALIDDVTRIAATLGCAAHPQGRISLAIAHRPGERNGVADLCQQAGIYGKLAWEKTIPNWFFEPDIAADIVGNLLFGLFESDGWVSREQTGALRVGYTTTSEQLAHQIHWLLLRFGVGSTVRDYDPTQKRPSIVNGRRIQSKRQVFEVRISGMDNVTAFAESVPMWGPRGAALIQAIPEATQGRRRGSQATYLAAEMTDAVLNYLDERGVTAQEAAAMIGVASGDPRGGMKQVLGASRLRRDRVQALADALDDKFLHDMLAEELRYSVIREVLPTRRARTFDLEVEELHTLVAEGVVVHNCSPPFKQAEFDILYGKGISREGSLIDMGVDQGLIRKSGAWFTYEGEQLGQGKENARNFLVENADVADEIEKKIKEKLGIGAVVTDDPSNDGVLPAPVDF
As to the kind of experiment: Fluorescence Cell-Free Homogeneous Dose Retest to Identify Inhibitors of RecA-Intein Splicing Activity. [Related pubchem assays (depositor defined):AID2097, AID2223, AID489010, AID492950]. The format is functional.

Assay [3] addresses Beta-galactosidase (Escherichia coli, UniProt Q8VNN2). As to the kind of experiment: beta-galactosidase enzyme inhibitors and activators, dose response, artefact control for CCR6 antagonist project, biochemical, E. coli enzyme, set 3 (AID 504712). Format: functional.
A short description of assay [4]: THP-1 cell cytotoxicity, dose response, cytotoxicity control for non-replicating M. tuberculosis project (AID 489025). The format is functional.
In assay [5] the target is T3, Sentrin-specific protease 7 (Homo sapiens, UniProt Q9BQF6).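 Further: Luminescence-based dose-response confirmation of ultra-high-throughput screening hits, measuring inhibition of SENP7.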
T3 sequence (Q9BQF6 whole entry): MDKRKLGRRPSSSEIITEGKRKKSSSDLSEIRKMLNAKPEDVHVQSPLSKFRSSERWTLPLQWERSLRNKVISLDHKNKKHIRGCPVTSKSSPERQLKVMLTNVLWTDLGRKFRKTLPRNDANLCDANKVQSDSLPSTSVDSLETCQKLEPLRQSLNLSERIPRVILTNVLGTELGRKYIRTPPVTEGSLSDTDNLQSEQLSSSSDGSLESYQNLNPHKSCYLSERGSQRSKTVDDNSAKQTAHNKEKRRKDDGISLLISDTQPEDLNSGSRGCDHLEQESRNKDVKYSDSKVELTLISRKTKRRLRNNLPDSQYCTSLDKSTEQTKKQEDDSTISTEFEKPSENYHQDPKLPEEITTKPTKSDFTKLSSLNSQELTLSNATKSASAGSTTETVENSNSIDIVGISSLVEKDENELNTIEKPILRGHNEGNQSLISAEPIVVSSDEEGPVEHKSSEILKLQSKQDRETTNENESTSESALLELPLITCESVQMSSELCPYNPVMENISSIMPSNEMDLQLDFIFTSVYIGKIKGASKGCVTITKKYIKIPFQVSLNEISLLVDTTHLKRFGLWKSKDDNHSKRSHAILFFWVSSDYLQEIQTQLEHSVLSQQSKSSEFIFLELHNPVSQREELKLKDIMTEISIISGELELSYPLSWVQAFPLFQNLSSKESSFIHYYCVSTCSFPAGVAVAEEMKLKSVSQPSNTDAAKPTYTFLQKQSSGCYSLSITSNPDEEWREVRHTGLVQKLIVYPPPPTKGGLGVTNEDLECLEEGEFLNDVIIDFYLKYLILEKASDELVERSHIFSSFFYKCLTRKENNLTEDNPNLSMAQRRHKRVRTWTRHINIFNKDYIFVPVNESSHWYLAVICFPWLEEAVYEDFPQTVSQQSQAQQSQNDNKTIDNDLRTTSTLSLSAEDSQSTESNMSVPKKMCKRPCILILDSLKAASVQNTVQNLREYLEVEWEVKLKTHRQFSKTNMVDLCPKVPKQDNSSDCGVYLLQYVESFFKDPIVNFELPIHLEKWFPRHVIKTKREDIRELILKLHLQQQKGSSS
The format is functional.

For assay [6], the system named is INS1. As to the kind of experiment: beta cell apoptosis inhibitors, cytokine rescue, dose response, luminescence, retest (AID 449756).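 Further: cell death triggered by IL-1 beta plus TNF-alpha plus IFN-gamma mixture; protective hits raise ATP signal compared with cytokine alone wells.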 The format is functional, cell-based. Conditions: Rattus norvegicus.
Assay [7] can be described thus: HepG2 cell cytotoxicity, dose response, cytotoxicity control for non-replicating M. tuberculosis project (AID 489018). The format is functional. The conditions noted are these: Mycobacterium tuberculosis.
In assay [8] the target is T4, Sentrin-specific protease 6 (Homo sapiens, UniProt Q9GZR1).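 Further: Luminescence-based dose-response confirmatory assay of SENP6 inhibition, following up an ultra-high-throughput screen.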
T4 sequence (Q9GZR1 whole entry): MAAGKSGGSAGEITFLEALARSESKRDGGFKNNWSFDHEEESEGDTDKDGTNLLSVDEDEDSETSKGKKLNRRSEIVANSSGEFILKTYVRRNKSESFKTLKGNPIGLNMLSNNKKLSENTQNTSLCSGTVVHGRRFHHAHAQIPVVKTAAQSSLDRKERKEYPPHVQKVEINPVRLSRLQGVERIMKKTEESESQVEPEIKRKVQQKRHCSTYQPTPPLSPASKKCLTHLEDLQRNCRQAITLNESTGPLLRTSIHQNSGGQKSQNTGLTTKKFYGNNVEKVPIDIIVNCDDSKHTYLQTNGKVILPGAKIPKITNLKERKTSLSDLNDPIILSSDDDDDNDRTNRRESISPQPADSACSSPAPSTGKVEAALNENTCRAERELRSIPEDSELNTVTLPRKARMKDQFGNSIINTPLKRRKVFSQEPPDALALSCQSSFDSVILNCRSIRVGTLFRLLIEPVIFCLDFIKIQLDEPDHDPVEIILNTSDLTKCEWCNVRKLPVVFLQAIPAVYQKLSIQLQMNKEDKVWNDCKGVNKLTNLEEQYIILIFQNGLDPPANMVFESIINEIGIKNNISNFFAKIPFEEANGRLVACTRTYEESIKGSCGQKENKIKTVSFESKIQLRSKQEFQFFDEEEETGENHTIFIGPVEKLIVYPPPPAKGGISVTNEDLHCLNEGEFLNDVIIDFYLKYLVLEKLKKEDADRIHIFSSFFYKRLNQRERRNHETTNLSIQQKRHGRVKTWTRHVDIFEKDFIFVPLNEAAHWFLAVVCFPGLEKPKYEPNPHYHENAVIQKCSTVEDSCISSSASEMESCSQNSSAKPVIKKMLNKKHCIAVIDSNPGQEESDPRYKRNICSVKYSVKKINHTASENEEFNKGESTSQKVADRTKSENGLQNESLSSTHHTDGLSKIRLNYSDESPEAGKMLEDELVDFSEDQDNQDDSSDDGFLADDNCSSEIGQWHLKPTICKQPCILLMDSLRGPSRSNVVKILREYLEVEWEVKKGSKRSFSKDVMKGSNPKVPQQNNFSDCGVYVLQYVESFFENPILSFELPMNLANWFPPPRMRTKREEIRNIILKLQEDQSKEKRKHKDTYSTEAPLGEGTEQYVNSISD
Format: functional.

Assay [9] concerns the target Photoreceptor-specific nuclear receptor (Homo sapiens, UniProt Q9Y5X4). Format: functional, cell-based.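 Further: CHO-S cells with Gal4-NCOR and VP16-NR2E3 two-hybrid luciferase reporter.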
The nature of assay [10]: growth suppression of beta-catenin-knockout colon cells, dose response, cell-based, HCT116, human colon tumor (AID 1045).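 Further: HCT116 colon tumor cells with beta catenin knocked out; cells exposed to compound for 60 hours.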 The format is functional.
Assay [11] addresses T5, Caspase-3 (Homo sapiens, UniProt P42574).
T5 sequence (P42574 whole entry): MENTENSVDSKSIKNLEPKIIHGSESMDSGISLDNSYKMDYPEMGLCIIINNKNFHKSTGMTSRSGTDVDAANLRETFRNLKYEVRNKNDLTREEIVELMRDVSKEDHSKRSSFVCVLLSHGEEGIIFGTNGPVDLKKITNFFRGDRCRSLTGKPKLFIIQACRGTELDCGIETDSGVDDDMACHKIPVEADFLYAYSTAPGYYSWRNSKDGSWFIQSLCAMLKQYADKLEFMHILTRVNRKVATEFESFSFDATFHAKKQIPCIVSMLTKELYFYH
The format is functional.

Assay [12] in a line: Vero E6 cell cytotoxicity, dose response, cytotoxicity control for non-replicating M. tuberculosis project, secondary assay (AID 492998). Format: functional, VeroE6. The conditions noted are these: Vero C1008.
Assay [13] addresses T6, Sentrin-specific protease 8 (Homo sapiens, UniProt Q96LD8).
T6 sequence (Q96LD8 whole entry): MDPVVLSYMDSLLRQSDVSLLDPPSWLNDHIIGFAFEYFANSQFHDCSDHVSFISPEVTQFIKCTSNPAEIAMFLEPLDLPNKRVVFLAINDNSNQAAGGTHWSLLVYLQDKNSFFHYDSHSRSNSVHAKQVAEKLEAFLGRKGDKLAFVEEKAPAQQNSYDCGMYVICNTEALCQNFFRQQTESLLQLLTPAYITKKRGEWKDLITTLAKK
The format is functional.

Assay [14] can be described thus: growth suppression of PTEN-null colon cells, dose response, cell-based, HCT116 PTEN knockout (AID 1047).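 Further: HCT116 colon tumor cells with PTEN knocked out; cells exposed to compound for 60 hours before readout; potency for loss of cell viability measured by luminescence.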 The format is functional.
The target in assay [15] is Voltage-dependent T-type calcium channel subunit alpha-1H (Homo sapiens, UniProt O95180). As to the kind of experiment: Cav3.2 T-type channel inhibitors, cell-based, synthetic library set 1, calcium flux (AID 493022). The format is functional. For orientation: Calcium assays in cells follow changes in intracellular calcium, usually with a dye or a luminescent sensor.
Assay [16] deals with T7, Probable nicotinate-nucleotide adenylyltransferase (Staphylococcus aureus (strain N315), UniProt P65502). The format is functional, Staphylococcus aureus subsp. aureus N315. The conditions noted are these: read-out: IC50_Mean.
The target in assay [17] is T7, Probable nicotinate-nucleotide adenylyltransferase. Format: functional, Staphylococcus aureus subsp. aureus N315.
Assay [18] has as its target T5, Caspase-3. As to the kind of experiment: procaspase-3 activators, dose response, biochemical, absorbance (AID 489014).
Assay [19] addresses Caspase-7 (Homo sapiens, UniProt P55210). As to the kind of experiment: procaspase-7 activators, dose response, counter-screen for procaspase-3 activator project, biochemical, absorbance (AID 489013). (The purpose of a counterscreen is to sort out artefacts and off-target activity.)
A short description of assay [20]: HEp-2 cell cytotoxicity, dose response, cytotoxicity control for RSV inhibitor project, HTS (AID 2410). Conditions: human respiratory syncytial virus. The format is functional.
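Wherever IC50 Mean is given: confirmatory dose-response retesting of NadD inhibitor hits first found in an ultra-high-throughput screen.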

T7 sequence (P65502 whole entry): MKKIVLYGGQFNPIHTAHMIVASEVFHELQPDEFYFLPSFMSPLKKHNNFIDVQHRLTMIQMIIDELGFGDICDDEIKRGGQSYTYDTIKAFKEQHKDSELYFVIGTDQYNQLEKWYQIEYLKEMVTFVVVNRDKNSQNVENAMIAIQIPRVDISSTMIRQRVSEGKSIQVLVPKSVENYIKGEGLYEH
Voltage-dependent T-type calcium channel subunit alpha-1H, sequence (O95180 whole entry): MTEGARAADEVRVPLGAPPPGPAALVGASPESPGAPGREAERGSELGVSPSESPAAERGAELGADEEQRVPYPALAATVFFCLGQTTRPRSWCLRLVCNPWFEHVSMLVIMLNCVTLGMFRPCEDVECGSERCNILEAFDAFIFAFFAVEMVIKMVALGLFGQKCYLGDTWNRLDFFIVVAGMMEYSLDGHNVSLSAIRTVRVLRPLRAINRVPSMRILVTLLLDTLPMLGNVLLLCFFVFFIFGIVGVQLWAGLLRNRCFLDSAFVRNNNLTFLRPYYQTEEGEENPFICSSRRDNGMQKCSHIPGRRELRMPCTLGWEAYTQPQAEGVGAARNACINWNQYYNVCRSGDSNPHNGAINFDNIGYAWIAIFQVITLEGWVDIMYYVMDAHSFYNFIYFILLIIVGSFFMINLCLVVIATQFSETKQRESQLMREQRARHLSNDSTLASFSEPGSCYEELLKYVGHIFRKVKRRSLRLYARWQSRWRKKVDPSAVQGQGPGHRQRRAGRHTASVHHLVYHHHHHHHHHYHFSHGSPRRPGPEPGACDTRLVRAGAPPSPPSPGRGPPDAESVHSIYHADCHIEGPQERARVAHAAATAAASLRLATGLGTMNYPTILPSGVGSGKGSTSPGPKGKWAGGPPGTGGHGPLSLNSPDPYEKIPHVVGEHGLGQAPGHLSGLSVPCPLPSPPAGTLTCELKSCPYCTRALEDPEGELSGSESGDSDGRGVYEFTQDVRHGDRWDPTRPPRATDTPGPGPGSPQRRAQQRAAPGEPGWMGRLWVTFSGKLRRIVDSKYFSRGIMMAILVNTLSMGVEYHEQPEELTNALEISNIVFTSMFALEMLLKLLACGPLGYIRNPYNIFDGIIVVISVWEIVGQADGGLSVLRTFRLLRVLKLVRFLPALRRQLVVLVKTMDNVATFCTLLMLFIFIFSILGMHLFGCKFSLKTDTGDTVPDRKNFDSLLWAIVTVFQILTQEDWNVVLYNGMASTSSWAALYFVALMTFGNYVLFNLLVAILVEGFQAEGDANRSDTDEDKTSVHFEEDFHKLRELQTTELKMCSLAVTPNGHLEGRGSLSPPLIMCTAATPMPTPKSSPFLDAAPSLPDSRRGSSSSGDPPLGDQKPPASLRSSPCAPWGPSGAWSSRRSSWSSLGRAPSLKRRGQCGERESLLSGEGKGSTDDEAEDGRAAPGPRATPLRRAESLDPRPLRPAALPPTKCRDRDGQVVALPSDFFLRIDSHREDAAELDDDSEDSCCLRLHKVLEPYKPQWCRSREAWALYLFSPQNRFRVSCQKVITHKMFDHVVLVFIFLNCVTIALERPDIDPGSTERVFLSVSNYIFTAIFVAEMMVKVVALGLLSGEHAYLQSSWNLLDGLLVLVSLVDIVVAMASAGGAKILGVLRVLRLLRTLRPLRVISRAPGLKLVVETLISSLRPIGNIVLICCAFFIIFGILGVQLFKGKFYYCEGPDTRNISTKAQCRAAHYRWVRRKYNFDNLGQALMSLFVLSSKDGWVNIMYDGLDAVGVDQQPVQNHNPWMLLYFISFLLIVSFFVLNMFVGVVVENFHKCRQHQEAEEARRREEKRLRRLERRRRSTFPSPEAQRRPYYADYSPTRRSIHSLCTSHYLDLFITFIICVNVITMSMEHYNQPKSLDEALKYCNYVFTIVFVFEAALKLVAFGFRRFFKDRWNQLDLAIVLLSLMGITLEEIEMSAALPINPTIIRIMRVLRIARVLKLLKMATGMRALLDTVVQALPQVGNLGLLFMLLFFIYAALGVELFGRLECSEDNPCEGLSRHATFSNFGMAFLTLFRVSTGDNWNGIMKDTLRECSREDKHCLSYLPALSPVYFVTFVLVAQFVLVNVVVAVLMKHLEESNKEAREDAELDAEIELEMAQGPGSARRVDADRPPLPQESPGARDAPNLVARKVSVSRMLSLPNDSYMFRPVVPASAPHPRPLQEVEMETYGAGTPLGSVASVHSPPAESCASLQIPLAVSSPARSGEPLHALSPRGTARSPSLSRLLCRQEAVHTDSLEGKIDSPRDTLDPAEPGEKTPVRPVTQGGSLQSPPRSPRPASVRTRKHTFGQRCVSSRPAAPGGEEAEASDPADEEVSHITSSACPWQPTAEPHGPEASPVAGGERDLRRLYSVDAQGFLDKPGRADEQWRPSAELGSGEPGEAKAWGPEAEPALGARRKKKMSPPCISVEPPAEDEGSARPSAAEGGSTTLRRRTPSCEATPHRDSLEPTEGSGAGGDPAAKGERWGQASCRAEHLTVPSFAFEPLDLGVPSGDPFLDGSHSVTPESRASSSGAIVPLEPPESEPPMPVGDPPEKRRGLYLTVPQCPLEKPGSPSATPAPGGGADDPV
Beta-galactosidase, sequence (Q8VNN2 whole entry): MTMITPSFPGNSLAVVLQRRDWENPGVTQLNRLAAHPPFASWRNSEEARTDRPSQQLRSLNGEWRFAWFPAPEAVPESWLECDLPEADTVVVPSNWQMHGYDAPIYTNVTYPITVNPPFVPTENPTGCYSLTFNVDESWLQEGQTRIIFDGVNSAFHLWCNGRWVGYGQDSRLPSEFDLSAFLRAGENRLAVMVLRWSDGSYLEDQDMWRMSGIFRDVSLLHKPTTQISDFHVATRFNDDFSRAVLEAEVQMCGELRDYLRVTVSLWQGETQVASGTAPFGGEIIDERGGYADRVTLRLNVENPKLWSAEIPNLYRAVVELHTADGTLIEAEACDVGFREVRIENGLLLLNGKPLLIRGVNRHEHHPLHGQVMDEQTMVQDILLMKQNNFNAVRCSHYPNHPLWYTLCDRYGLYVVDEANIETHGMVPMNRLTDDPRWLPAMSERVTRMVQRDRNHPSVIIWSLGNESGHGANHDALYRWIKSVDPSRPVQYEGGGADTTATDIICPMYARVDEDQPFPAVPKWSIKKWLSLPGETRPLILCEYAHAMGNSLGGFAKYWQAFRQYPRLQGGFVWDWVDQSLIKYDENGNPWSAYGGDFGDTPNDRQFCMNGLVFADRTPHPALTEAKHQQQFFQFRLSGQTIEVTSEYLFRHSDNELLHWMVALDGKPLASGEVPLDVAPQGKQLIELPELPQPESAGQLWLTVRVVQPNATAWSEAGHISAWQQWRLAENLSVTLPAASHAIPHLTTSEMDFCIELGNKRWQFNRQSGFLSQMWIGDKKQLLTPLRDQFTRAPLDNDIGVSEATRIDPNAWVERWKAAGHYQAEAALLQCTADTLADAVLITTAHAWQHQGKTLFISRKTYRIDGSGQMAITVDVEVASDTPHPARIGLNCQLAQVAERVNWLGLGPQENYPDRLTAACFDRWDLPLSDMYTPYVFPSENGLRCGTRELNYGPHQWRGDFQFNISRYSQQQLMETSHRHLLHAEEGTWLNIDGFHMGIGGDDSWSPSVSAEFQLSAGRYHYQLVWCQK
Photoreceptor-specific nuclear receptor, sequence (Q9Y5X4 whole entry, the tested form may be a part): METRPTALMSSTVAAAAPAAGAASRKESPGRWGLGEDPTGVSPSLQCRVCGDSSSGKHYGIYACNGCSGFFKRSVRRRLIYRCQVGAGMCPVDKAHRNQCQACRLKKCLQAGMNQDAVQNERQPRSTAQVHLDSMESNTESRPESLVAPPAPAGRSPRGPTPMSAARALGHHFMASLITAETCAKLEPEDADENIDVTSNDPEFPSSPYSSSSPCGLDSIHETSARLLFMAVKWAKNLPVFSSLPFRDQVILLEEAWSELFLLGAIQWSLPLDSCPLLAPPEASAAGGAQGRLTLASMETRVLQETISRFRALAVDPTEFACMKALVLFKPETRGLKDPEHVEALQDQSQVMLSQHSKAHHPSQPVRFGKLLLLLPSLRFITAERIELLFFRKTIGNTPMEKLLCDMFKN
Caspase-7, sequence (P55210 24-198 limits assumed): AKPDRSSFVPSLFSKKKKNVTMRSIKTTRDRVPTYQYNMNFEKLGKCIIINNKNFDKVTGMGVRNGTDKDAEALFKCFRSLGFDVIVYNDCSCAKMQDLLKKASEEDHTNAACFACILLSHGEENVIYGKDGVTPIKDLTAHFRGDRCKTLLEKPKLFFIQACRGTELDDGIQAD
Caspase-7, sequence (P55210 207-303 limits assumed): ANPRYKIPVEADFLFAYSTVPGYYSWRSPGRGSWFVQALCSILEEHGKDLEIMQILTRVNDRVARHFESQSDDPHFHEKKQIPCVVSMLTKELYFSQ

As a reminder, the AC50 is the concentration at which the activity in the assay is half-maximal. The EC50 is the concentration at which the effect is half-maximal. For `N#Cc1cc([N+](=O)[O-])c(-n2nnc3ccccc32)c([N+](=O)[O-])c1`, the half-maximal activity concentration (AC50) in assay [1] was 7.31 µM (active). Also, the EC50 in [2] was 25.9 µM (active). The IC50 in assay [3] was > 66.6 µM (inactive).

In general, CC50 refers to the concentration at which the toxic effect on the cells reaches its halfway point. As for `COc1ccccc1-n1c(=O)oc2ccc(Cl)cc2c1=O`, the CC50 was 19.8 µM (active) in assay [4], > 20 µM (active) in [7] and > 20 µM (active) in assay [12]. The IC50 in assay [5] was 11.5 µM (active); in [8] it was 16.5 µM (active); in assay [9], 5.1 µM (active); in assay [11], 26.9 µM (active); in [13] it was 22.6 µM (active). In addition, the AC50 in assay [6] was 8.62 µM (active). Also, the EC50 in assay [10] is 11.9 µM (active); in assay [14], 11.7 µM (active).

With `Cc1ccc(-c2nnc(NC(=O)COc3ccc(Cl)cc3)o2)cc1C`, the EC50 in assay [15] is 1.4 µM (active).

As for `C=CCn1/c(=N/C(=O)c2cc(-c3cccs3)nc3ccccc23)sc2cc(S(N)(=O)=O)ccc21`, the IC50 is 21.6 µM (active) in assay [16] and 11.5 µM (active) in assay [17]. In assay [6], the half-maximal activity concentration (AC50) is 19.3 µM (active). For the same compound, the EC50 was 30.1 µM (active) in assay [10], 3.26 µM (active) in [18], > 3.16 µM (active) in [19] and 25.3 µM (active) in assay [14]. In addition, the cytotoxic concentration (CC50) in assay [20] was 17.2 µM (active).
